According to publication PMC5785997, “2-Phenylquinazolinones as dual-activity tankyrase-kinase inhibitors” (Scientific Reports, 2018):

Experiments:
[1] = target: TNKS2 (Homo sapiens, UniProt Q9H2K2); assay: NAD+ quantification activity assay, TNKS2; type: biochemical; settings: TNKS2 IC50, NAD+ 500 nM
Method: The activity assay used to measure the potency of the compounds against TNKS2 is based on the quantification of NAD^+[38]. The reactions were carried out in 96-well plate (Greiner bio-one, U-shaped) and the conditions were the same as reported earlier (Table S5)[24].
The compounds were stored in 100% DMSO at −20 °C. All the compounds were diluted in the TNKS2 assay buffer (50 mM Bis-Tris Propane, 0.5 mM TCEP, 0.01% Triton-100x). Control reactions were used to exclude the effect of compound fluorescence and quenching from the calculations. […] The pIC50 values were calculated and fitted with nonlinear regression using 4-parameters with GraphPad Prism (version 5.0 for windows).
(§1) Protein (nM) NAD+ (nM) Incubation Buffer
(§2) Kinase [ATP] Substrate Incubation Reaction buffer

[2] = target: ARTD5/TNKS1 (Homo sapiens, UniProt O95271); assay: NAD+ quantification activity assay, TNKS1; type: biochemical; settings: NAD+ 500 nM
ARTD5/TNKS1, sequence (O95271 1112-1317): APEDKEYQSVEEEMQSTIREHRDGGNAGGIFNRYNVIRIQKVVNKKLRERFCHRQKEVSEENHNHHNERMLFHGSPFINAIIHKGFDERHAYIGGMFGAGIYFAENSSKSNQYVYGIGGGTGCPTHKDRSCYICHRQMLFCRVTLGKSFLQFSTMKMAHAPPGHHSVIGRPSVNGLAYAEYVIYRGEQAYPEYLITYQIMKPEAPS
Method: as §1, §2

[3] = test system: Wnt/β-catenin signaling (TCF/LEF Reporter HEK293 Cell Line); assay: Wnt signaling TCF/LEF reporter assay in HEK293 cells; type: cell-based, human; settings: Homo sapiens; for inhibition at 2 µM: HEK293, 2 µM compound, Wnt-reporter cell assay, read-out: Wnt (Inh.%, 2 µM)
Method: The Wnt assay was performed using a procedure modified from the BPS Bioscience protocol. Details are given in the Supplementary Methods. […]
The Wnt Signaling Pathway TCF/LEF Reporter HEK293 Cell Line (BPS Bioscience, catalog […]
Reporter HEK293 cells were grown at 37 °C with 5% CO2 using Dulbecco's Modified Eagle's Medium (DMEM, Sigma), supplemented with 10% of fetal bovine serum (Lonza), 1% non-essential amino acid (Sigma), 1X of penicillin and streptomycin (Sigma), and 400 µg/ml of Geneticin (Roche). Wnt-3a and L cells (ATCC) were cultured in Dulbecco’s modified Eagle’s medium supplemented with 10% fetal bovine serum, penicillin and streptomycin at 37 °C in a 5%
CO2. Wnt3a and control conditioned medium preparation has been described previously1. The Wnt assay was performed using a procedure modified from the BPS Bioscience protocol. 30,000 HEK293 cells/well in 40 µl of serum-free DMEM were plated on 96-well plate (white wells, clear […]
bottom, PerkinElmer). 10 µl of 50 mM LiCl in serum-free DMEM with 5x concentration of DMSO or tankyrase inhibitors was added. After 16 hours of incubation, 25 µl of Wnt3a or control conditioned medium supplemented with DMSO or tankyrase inhibitors was added on cells and cells were incubated for additional 24 hours. After the second incubation, the 96-well plates were balanced in room temperature for 30 minutes. Wnt3a induced luciferase activity was determined using ONE-Glo Luciferase Assay System (Promega) according to manufacturer’s protocol. […]
Difference Fourier method deriving the starting phases from 3U9H. The refinement of the structures was done with REFMAC5.5,6 Final manual building, analysis and visualization of the structures were made with Coot7 and PyMOL (www.pymol.org). All chemical structures were drawn with Marvin (Marvin 5.7.0 2011, ChemAxon, http://www.chemaxon.com). The docking studies were performed using GOLD software.8

[4] = set-up: method as in PMID 24130191; settings: previous study; read-out: IC50 in cell-based assay; cited from earlier work
[5] = target: ARTD1/PARP1 (Homo sapiens, UniProt P09874); assay: ARTD profiling, ARTD1
ARTD1/PARP1, sequence (P09874 whole entry): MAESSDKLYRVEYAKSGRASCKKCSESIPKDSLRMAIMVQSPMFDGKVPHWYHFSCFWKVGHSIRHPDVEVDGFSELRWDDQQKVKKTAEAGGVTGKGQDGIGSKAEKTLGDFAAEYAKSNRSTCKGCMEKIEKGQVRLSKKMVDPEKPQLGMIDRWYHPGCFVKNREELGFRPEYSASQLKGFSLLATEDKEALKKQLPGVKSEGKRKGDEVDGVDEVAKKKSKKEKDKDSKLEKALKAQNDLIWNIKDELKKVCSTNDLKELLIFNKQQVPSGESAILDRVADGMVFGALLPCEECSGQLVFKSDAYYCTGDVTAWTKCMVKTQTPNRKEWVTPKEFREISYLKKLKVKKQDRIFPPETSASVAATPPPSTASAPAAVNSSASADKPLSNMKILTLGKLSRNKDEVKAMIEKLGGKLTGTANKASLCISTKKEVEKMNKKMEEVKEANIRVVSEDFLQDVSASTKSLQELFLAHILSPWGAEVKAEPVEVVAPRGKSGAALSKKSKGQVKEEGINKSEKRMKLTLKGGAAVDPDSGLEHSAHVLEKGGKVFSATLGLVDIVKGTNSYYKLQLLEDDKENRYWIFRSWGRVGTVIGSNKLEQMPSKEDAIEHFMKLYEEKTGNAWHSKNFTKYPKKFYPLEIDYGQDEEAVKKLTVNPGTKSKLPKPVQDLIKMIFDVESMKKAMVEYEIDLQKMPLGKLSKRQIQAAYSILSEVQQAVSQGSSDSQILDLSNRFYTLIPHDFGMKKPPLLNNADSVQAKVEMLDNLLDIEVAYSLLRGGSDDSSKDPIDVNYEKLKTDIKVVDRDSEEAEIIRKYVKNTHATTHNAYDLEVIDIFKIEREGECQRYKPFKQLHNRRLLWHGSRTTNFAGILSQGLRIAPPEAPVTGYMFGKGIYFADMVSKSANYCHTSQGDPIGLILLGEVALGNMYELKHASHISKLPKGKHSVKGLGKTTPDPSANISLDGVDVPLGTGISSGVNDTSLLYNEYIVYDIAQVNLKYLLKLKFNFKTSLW

[6] = target: ARTD2/PARP2 (Homo sapiens, UniProt Q9UGN5); assay: ARTD profiling, ARTD2
ARTD2/PARP2, sequence (Q9UGN5 whole entry): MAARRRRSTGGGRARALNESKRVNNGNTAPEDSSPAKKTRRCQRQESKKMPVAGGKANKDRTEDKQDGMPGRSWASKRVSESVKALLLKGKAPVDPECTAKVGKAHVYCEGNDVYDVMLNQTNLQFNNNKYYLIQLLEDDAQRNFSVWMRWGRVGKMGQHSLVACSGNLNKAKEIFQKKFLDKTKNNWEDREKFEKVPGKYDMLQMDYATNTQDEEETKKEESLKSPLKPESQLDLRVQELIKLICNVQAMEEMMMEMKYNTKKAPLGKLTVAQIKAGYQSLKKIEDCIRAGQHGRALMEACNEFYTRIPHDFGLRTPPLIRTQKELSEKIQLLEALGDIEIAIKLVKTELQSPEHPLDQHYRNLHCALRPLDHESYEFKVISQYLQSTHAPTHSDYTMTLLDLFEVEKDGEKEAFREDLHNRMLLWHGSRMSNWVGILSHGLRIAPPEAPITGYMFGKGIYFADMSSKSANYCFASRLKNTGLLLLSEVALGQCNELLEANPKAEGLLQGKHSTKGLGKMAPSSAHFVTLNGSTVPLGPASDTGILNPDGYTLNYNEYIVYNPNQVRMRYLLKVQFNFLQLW

[7] = target: T1, ARTD3/PARP3 (Homo sapiens, UniProt Q9Y6F1); assay: ARTD profiling, ARTD3; type: biochemical; settings: NAD+ 500 nM
T1 sequence (Q9Y6F1 1-533): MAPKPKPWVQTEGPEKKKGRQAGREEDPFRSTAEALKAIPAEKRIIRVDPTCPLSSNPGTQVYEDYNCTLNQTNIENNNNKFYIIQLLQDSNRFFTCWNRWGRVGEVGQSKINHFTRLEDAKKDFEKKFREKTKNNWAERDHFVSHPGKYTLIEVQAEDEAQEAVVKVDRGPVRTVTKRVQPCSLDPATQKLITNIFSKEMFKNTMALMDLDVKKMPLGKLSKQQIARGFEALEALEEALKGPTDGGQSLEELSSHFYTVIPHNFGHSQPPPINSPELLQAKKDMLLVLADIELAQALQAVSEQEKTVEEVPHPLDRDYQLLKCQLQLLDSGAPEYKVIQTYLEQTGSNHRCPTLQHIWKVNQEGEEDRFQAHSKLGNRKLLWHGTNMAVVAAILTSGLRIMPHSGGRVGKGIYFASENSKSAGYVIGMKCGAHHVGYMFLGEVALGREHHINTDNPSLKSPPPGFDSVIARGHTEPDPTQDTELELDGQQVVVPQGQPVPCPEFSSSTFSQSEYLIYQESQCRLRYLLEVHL
Method: as §1, §2

[8] = target: T2, ARTD4/PARP4 (Homo sapiens, UniProt Q9UKK3); assay: ARTD profiling, ARTD4
T2 sequence (Q9UKK3 369-573 limits assumed): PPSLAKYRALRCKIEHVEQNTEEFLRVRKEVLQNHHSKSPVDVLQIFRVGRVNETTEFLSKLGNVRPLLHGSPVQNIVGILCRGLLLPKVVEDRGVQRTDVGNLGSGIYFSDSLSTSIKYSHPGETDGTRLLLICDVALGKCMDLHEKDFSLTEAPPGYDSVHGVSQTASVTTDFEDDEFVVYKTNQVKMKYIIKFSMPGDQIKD

[9] = target: T3, ARTD7/PARP15 (Homo sapiens, UniProt Q460N3); assay: ARTD profiling, ARTD7
T3 sequence (Q460N3 482-678 limits assumed): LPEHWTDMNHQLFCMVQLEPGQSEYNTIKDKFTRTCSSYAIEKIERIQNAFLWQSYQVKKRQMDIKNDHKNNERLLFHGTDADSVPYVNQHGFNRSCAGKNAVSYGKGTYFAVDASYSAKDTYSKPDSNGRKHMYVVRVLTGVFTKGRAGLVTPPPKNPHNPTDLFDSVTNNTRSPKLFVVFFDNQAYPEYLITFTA

[10] = target: ARTD8/PARP14 (Homo sapiens, UniProt Q460N5); assay: ARTD profiling, ARTD8
ARTD8/PARP14, sequence (Q460N5 whole entry): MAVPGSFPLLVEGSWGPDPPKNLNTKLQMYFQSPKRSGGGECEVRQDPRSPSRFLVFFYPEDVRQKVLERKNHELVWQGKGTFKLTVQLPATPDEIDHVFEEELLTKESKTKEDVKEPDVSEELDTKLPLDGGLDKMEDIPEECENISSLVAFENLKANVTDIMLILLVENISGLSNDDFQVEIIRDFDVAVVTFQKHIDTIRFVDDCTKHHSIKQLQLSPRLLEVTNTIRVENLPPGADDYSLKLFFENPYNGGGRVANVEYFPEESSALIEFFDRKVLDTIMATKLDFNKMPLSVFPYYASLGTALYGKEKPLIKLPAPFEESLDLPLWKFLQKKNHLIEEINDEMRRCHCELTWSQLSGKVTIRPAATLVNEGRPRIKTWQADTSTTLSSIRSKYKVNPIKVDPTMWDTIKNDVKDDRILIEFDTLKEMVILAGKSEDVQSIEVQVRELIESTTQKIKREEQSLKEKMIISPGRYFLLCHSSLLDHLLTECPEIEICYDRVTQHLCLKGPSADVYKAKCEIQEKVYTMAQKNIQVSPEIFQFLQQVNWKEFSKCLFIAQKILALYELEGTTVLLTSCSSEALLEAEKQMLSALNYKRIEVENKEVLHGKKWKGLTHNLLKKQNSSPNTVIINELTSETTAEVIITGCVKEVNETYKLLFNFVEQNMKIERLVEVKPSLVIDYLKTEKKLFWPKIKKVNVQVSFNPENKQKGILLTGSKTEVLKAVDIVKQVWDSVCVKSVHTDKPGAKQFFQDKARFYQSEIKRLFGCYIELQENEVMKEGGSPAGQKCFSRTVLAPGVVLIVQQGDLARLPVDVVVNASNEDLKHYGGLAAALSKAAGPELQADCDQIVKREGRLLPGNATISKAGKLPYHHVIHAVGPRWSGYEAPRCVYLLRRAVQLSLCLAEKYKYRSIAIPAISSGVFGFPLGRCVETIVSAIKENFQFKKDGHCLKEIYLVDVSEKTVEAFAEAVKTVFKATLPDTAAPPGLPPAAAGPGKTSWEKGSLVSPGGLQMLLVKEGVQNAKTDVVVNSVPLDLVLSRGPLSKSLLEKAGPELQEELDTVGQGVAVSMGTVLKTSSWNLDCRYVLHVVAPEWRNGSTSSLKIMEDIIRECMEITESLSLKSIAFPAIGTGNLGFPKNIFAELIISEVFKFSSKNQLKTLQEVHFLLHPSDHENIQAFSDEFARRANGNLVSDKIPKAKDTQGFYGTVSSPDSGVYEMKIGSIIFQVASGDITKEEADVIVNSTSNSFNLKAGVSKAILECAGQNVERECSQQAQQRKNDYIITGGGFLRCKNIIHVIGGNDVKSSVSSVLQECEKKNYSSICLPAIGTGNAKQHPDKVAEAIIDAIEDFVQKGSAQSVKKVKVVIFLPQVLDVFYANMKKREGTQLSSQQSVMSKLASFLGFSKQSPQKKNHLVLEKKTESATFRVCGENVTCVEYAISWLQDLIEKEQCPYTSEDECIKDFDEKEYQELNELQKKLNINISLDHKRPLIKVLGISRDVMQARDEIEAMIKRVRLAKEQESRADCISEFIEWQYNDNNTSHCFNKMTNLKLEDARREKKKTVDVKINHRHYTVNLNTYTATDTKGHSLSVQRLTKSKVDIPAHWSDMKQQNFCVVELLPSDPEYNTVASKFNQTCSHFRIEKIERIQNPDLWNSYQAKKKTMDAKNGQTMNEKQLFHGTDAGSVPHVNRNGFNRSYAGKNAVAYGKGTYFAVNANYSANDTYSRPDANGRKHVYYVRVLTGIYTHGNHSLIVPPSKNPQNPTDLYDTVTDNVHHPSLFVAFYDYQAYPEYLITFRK

[11] = target: T4, ARTD10/PARP10 (Homo sapiens, UniProt Q53GL7); assay: ARTD profiling, ARTD10
T4 sequence (Q53GL7 806-1025 limits assumed): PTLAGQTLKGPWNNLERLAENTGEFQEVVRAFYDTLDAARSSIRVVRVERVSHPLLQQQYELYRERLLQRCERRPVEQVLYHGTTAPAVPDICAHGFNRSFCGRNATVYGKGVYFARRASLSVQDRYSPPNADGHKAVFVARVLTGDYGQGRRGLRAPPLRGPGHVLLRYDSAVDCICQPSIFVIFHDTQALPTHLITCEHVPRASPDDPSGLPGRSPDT

[12] = target: T5, ARTD12/PARP12 (Homo sapiens, UniProt Q9H0J9); assay: ARTD profiling, ARTD12
T5 sequence (Q9H0J9 484-698 limits assumed): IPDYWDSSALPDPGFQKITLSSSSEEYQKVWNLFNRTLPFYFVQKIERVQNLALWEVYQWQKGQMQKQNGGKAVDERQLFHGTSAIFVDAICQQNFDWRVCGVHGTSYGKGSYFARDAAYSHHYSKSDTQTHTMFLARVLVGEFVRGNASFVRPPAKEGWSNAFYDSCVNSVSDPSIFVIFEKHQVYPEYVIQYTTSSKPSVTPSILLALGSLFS

[13] = target: T6, ARTD15/PARP16 (Homo sapiens, UniProt Q8N5Y8); assay: ARTD profiling, ARTD15
T6 sequence (Q8N5Y8 1-322): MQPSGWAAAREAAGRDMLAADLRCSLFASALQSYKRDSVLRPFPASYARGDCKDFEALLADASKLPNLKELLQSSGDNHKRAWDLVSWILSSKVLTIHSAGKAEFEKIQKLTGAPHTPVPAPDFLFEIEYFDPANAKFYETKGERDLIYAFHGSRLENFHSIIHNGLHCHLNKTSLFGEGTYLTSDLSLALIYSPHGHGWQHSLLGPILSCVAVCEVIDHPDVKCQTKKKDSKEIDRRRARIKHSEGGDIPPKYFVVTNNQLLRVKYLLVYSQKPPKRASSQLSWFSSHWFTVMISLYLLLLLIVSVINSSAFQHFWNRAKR

TNKS2, sequence (Q9H2K2 959-1164): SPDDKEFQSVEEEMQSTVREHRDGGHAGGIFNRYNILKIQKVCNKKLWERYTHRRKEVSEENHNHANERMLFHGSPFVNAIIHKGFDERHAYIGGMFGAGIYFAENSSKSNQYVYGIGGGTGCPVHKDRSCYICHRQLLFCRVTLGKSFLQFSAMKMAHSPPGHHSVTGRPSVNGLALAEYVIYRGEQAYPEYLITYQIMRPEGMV

Row | IC50 [1] [nM] | IC50 [2] [nM] | IC50 [5] [nM] | IC50 [6] [nM] | IC50 [7] [µM] | IC50 [8] [nM] | IC50 [9] [µM] | IC50 [10] [µM] | IC50 [11] [µM] | IC50 [12] [µM] | IC50 [13] [µM] | Compound | inhibition at 2 µM [3] [%] | IC50 [4] [nM] | inhibition at 1 µM ([3]; HEK293, 1 µM compound, TCF/LEF reporter HEK293) [%]
1 | 3.3 | 5.9 | 374 | 340 |  |  |  |  |  |  |  | CC1(c2ccc(-c3nc4ccccc4c(=O)[nH]3)cc2)NC(=O)NC1=O (centres unmarked) [Compound 2] | 68 | ~1000 | 
2 | 10 | 10 | 1000 | 870 |  |  |  |  |  |  |  | CC1(c2ccc(-c3nc4ccccc4c(=O)[nH]3)cc2)CNC(=O)N1 (centres unmarked) [Compound 9] | 72 |  | 
3 | 16 | 77 | 1700 | 860 | 3.8 | 2000 | > 10 | 3.2 | 3.1 | > 10 | > 10 | CN(CCO)c1ccc(-c2nc3ccccc3c(=O)[nH]2)cc1 [Compound 33] |  |  | 20
